Measurements: paper doi:10.1101/2025.05.17.654689v2 (biorxiv, 2025)

Tested on: QgIspS1-like (ΔTP-QgIspS1-like-6×His)
Experiment: GC-MS
Assay type: biochemical, Quercus glauca
Details: 20 mM MgCl2, 37 °C, 30 min; from formation of the main product trans-β-ocimene

Km: 180 ± 40 µM
Compound: CC(C)=CCC/C(C)=C/COP(=O)(O)OP(=O)(O)O [GPP]
